The values that follow come from patent US12441727B2, “Tricyclic compounds as inhibitors of KRAS” (Incyte Corporation, priority 2021, dated 2025).

SMILES strings stand for the structures. Where only a bound is given, the exact number is not on record here.

The nature of data set [1]: Human whole blood stability. The note with it: percent remaining at 4 hr, 1 μM, 37° C. Type of data set: in vitro ADME. As for the experimental part: The whole blood stability of the exemplified compounds was determined by LC-MS/MS. The 96-Well Flexi-Tier™ Block (Analytical Sales & Services, Inc, Flanders, NJ) is used for the incubation plate containing 1.0 mL glass vials with 0.5 mL of blood per vial (pooled gender, human whole blood sourced from BIOIVT, Hicksville, NY or similar). Blood is pre-warmed in water bath to 37° C. for 30 minutes. 96-deep well analysis plate is prepared with the addition of 100 μL ultrapure water/well. 50 μL chilled ultrapure water/well is added to 96-deep well sample collection plate and covered with a sealing mat. 1 μL of 0.5 mM compound working solution (DMSO:water) is added to the blood in incubation plate to reach final concentrations of 1 μM, mixed by pipetting thoroughly and 50 μL is transferred 50 into the T=0 wells of the sample collection plate. Blood is allowed to sit in the water for 2 minutes and then 400 μL stop solution/well is added (acetonitrile containing an internal standard). The incubation plate is placed in the Incu-Shaker CO2 Mini incubator (Benchmark Scientific, Sayreville, NJ) at 37° C. with shaking at 150 rpm. At 1, 2 and 4-hr, the blood samples are mixed thoroughly by pipetting and 50 μL is transferred into the corresponding wells of the sample collection plate. Blood is allowed to sit in the water for 2 minutes and then 400 μL of stop solution/well is added. The collection plate is sealed and vortexed at 1700 rpm for 3 minutes (VX-2500 Multi-Tube Vortexer, VWR International, Radnor, PA), and samples are then centrifuged in the collection plate at 3500 rpm for 10 minutes (Allegra X-14R Centrifuge Beckman Coulter, Indianapolis, IN). 100 μL of supernatant/well is transferred from the sample collection plate into the corresponding wells of the analysis plate. The final plate is vortexed at 1700 rpm for 1 minute and analyze samples by LC-MS/MS. The peak area ratio of the 1, 2, and 4 hr samples relative to T=0 is used to determine the percent remaining. The natural log of the percent remaining versus time is used determine a slope to calculate the compounds half-life in blood (t1/2=0.693/slope).

The next data set deals with KRAS G12C (Homo sapiens, UniProt P01116, G12C). Put plainly: GDP-GTP exchange assay (KRAS_G12C exchange assay). Type of data set: biochemical. The conditions noted are these: bodipy-loaded KRAS G12C 2.5 nM, SOS1 150 nM, 2 hours pre-incubation with inhibitor; read-out: G12C_exchange. In short, it runs like this: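 Bodipy-GDP-loaded KRAS G12C (2.5 nM final) preincubated 2 hours with compound in 25 mM Hepes pH 7.5, 50 mM NaCl, 10 mM MgCl2, 0.01% Brij-35; exchange started with 500 uM GppNHp and 150 nM SOS1, run 2 hours at ambient temperature. Fluorescence read at 485/520 nm; IC50 by four-parameter logistic fit.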

Another data set relates to KRAS_G12C pERK. Put plainly: Cellular pERK HTRF assay (KRAS_G12C pERK assay). Type of data set: cell-based, human. The conditions noted are these: Homo sapiens, 4 h, KRAS G12C cells, 4 hours incubation with compound; read-out: G12C_pERK. In short, it runs like this:
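KRAS-mutant (G12C, G12D, G12V) and KRAS WT cancer cell lines, plated overnight in RPMI/10% FBS, were treated with compound (0.1% DMSO) at 37 °C for 4 h (G12C, G12V) or 2 h (G12D). Lysates were probed with anti-phospho-ERK1/2 HTRF antibody pair read at 665/620 nm; IC50 fitted.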
(In general: Time-resolved FRET reads energy transfer from a long-lived donor to a nearby acceptor.)

The subject of data set [2] is KRAS_G12C pERK in MIA PaCa-2 cells. Kind of data set: Whole Blood pERK1/2 HTRF assay (KRAS_G12C WB pERK assay). Type of data set: cell-based, human. The note with it: Homo sapiens, compound in whole blood, 4 hours, read-out: G12C_WB_pERK. An outline of the steps: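 MIA PaCa-2 (KRAS G12C) cells were grown 2 days, then exposed for 4 h at 37 °C to compound spiked into whole blood (0.5% DMSO). After PBS washes and lysis, phospho-ERK1/2 was read by HTRF at 665/620 nm, and the IC50 came from a curve fit.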

Sequence of KRAS G12C (P01116 1-188 isoform P01116-2 G12C): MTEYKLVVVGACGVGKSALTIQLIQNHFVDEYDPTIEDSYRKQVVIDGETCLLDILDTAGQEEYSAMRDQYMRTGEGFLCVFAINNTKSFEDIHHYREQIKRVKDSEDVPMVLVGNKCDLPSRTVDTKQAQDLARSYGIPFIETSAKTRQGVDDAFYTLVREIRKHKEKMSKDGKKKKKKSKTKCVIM

In the case of `Cc1cccc(-c2c(C)cc3c(nc(N4CC(C)(N(C)C)C4)c4ncn([C@H]5CCN(C(=O)/C=C/CF)[C@H](CC#N)C5)c43)c2F)c1Cl` [Example 12, 2-((2S,4S)-4-(7-(2-chloro-3-methylphenyl)-4-(3-(dimethylamino)-3-methylazetidin-1-yl)-6-fluoro-8-methyl-1H-imidazo[4,5-c]quinolin-1-yl)-1-((E)-4-fluorobut-2-enoyl)piperidin-2-yl)acetonitrile], the “Human whole blood stability at 4 hr” value in data set [1] is recorded as “††† (WBS >90%)”. The IC50 (at KRAS G12C; in the data set with KRAS_G12C pERK; in data set [2]) was no more than 50 nM each time.

`C=C(F)C(=O)N1CC[C@H](n2cnc3c(O[C@@H](C)[C@@H]4CCCN4C)nc4c(F)c(-c5cccc(C)c5Cl)c(C)cc4c32)C[C@H]1CC#N` [Example 13, 2-((2S,4S)-4-(7-(2-chloro-3-methylphenyl)-6-fluoro-8-methyl-4-((S)-1-((S)-1-methylpyrrolidin-2-yl)ethoxy)-1H-imidazo[4,5-c]quinolin-1-yl)-1-(2-fluoroacryloyl)piperidin-2-yl)acetonitrile]: in data set [1], the “Human whole blood stability at 4 hr” value is on record as “†† (WBS >70% but ≤90%)”. In addition, the figures for the IC50 (at KRAS G12C; in the data set on KRAS_G12C pERK; in data set [2]) were no more than 50 nM, no more than 50 nM and 100 to 1000 nM, respectively.

With `COC/C=C/C(=O)N1CC[C@H](n2nnc3c(O[C@@H](C)[C@@H]4CCCN4C)nc4c(F)c(-c5ncc(F)c6ccccc56)c(C)cc4c32)C[C@H]1CC#N` [Example 21, 2-((2S,4S)-4-(6-fluoro-7-(4-fluoroisoquinolin-1-yl)-8-methyl-4-((S)-1-((S)-1-methylpyrrolidin-2-yl)ethoxy)-1H-[1,2,3]triazolo[4,5-c]quinolin-1-yl)-1-((E)-4-methoxybut-2-enoyl)piperidin-2-yl)acetonitrile], the “Human whole blood stability at 4 hr” value in data set [1] is given as “††† (WBS >90%)”. The IC50 (on KRAS G12C; with KRAS_G12C pERK; in data set [2]) was no more than 50 nM throughout.
